Drawing on PubChem BioAssay (NCI), this text covers TGI and GI50 for 28 molecules.

Molecules are shown by their SMILES.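 Dose response: 5 concentrations. Exposure: 48 h. Format: 96-well plates. Endpoint: linear interpolation; highest concentration if not reached. GI50 is the concentration that inhibits growth by half. TGI denotes the concentration required for complete inhibition of growth.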

What all share (experiment): NCI-60 cell line screen, 48 h
Test [1] concerns A498 renal.
In test [2] the test system is CCRF-CEM leukemia.
Test [3] deals with DU-145 prostate.
For test [4], the system named is HCT-116 colon.
For test [5], the system named is MOLT-4 leukemia.
For test [6], the system named is OVCAR-5 ovarian.
The subject of test [7] is SF-539 CNS.
Test [8] deals with SK-MEL-28 melanoma.
Test [9] has as its system SR leukemia.
For test [10], the system named is SW-620 colon.

Turning to `c1cc(CSc2ncnc3nc[nH]c23)ccn1`, the TGI in [1], in test [2], in [3], in test [4], in [5] and in [6] was more than 100 µM each time. Also, the TGI in test [7], in [8], in test [9] and in [10] was more than 100 µM throughout.

On to `C/C(=N\O)c1cccc(Nc2c3ccccc3nc3occc23)c1`, for which the TGI was more than 100 µM in test [1]; more than 100 µM in [2]; 59.2 µM in test [3]; 18.8 µM in test [4]; more than 100 µM in test [5]; more than 100 µM in [6]. Moreover, the TGI in test [7] was 21.1 µM; in test [8], 25.6 µM; in [9], more than 100 µM.

`CN(C)NC1=NS(=O)(=O)c2cc3c(=O)n(C)[nH]c3cc2S1`: the TGI in [1], in test [2], in test [3], in test [4], in test [5] and in test [6] was more than 10 µM throughout. The TGI in test [7], in [8], in test [9] and in test [10] was more than 10 µM each time.

Regarding `S=C(S)NCCN1CCNCC1`, the TGI in [1], in [2], in test [3], in [4], in test [6] and in [8] was more than 100 µM in each case. Further, the TGI in test [9] and in test [10] was more than 100 µM throughout.

As to `O=C(CCCn1ccnc1[N+](=O)[O-])NCCn1cnc([N+](=O)[O-])n1`, the TGI in [1], in [2], in test [3], in [4], in test [5] and in test [6] was more than 100 µM in each case. For the same molecule, the TGI in test [7], in [8], in test [9] and in test [10] was more than 100 µM in each case.

Consider `O=CC1OC(=O)c2cc(O)c(O)c(O)c2-c2c(cc(O)c(O)c2O)C(=O)OC1C1OC(=O)c2cc(O)c(O)c(O)c2-c2c(O)c(O)c3oc(=O)c4c(c(O)c(O)c5oc(=O)c2c3c54)-c2c(cc(O)c(O)c2O)C(=O)OCC1O` (configuration not stated), for which the TGI in test [1] is more than 100 µM; in [2] it was more than 100 µM; in test [3] it was more than 100 µM; in test [4], 32.6 µM; in [5], 90.1 µM; in test [6] it was more than 100 µM. In addition, the results for the TGI in [8], in test [9] and in test [10] were more than 100 µM, more than 100 µM and 47.7 µM, respectively.

Turning to `CC(C)=CCc1cc(/C=C/C(=O)O)cc(CC=C(C)C)c1O`, the TGI in [1], in [2], in test [3], in [4], in [5] and in test [6] was more than 100 µM throughout. Besides, the TGI in [7], in [9] and in test [10] was more than 100 µM in each case.

`COc1ccc(Nc2cc(=O)[nH]c(=O)[nH]2)cc1`: the TGI in test [1], in [2], in test [3], in test [4], in test [5] and in test [6] was more than 100 µM in each case. Also, the TGI in [7], in test [8], in [9] and in test [10] was more than 100 µM each time.

For `CCOC(=O)c1cc([N+](=O)[O-])c(Sc2ncnc3nc[nH]c23)c([N+](=O)[O-])c1`, the TGI was determined as 25.6 µM in [1]; 4.39 µM in test [2]; 29.2 µM in test [3]; 3.94 µM in test [4]; 5.15 µM in [6]; 13.4 µM in test [7]. The TGI is 29.2 µM in test [8], 83.3 µM in [9] and 5.25 µM in test [10].

On to `CC(C)C(/C=C/c1ccc(Cl)cc1)=N\NC(=O)N/N=C(/C=C/c1ccc(Cl)cc1)C(C)C`, for which the TGI in test [1] is 33.9 µM; in test [2], more than 100 µM; in test [3], more than 100 µM; in [4] it was 39 µM; in test [5], more than 100 µM; in test [6] it was more than 100 µM. The TGI was 31.2 µM in test [7], more than 100 µM in test [8], 80.7 µM in test [9] and more than 100 µM in test [10].

As to `O=C(OCC(OC(=O)c1ccccc1)C1CC(C2(O)CCCCC2)C(=O)O1)c1ccccc1` (configuration not stated), the TGI in test [1] was more than 25 µM; in test [2] it was more than 25 µM; in test [3] it was more than 25 µM; in test [4], more than 25 µM; in [5] it was 19.1 µM; in test [6], more than 25 µM. The TGI in [7], in test [8], in test [9] and in [10] was more than 25 µM in each case.

As to `O=c1c2cc([N+](=O)[O-])ccc2n2n1CCCCC2`, the TGI in test [1], in test [2], in [3], in test [4], in test [5] and in [6] was more than 100 µM each time. In addition, the TGI in test [7], in test [8], in test [9] and in test [10] was more than 100 µM each time.

Turning to `CN(Cc1cnc2nc(N)nc(N)c2n1)c1ccc(C(=O)NCCCC(=O)O)cc1`, the TGI in [1], in test [2], in test [3], in test [4], in test [5] and in [6] was more than 100 µM in each case. Besides, the TGI in test [7], in test [8], in test [9] and in [10] was more than 100 µM throughout.

As to `CON[N+]([O-])=NC(C)C`, the TGI in [1], in test [2], in [3], in [4], in test [5] and in [6] was more than 100 µM in each case. Also, the TGI in test [7], in test [8], in test [9] and in [10] was more than 100 µM throughout.

In the case of `Cc1cccc(N=N/C(=N\NC(=O)c2cc(Cl)ccc2O)c2ccc(N(CCC#N)CCC#N)cc2C)c1`, the TGI in test [2] was 34.3 µM; in test [3] it was more than 100 µM; in [4], more than 100 µM; in test [5], 39.9 µM; in test [6] it was more than 100 µM; in [7] it was more than 100 µM. The TGI in [8] was more than 100 µM; in test [9], 52.4 µM; in test [10] it was more than 100 µM.

For `COC(=O)[C@H](Cc1ccccc1)NC(=O)N(CCNC(=O)OC(C)(C)C)c1ccccc1`, the TGI in [1], in [2], in [3], in test [4], in test [5] and in test [6] was more than 100 µM in each case. The TGI in test [8], in [9] and in [10] was more than 100 µM in each case.

With `O=C(CC(=O)N1N=C(N(c2ccccc2)c2ccccc2)CC1c1ccccc1)Nc1cccc(Cl)c1` (configuration not stated), the TGI in [2], in test [3], in test [4], in [5], in [6] and in [7] was more than 100 µM throughout. Besides, the TGI in [8], in test [9] and in test [10] was more than 100 µM throughout.

As for `CN(C)CC(C)(C)CN1c2ccccc2Sc2ccccc21`, the TGI was found to be 26.4 µM in test [1]; 24.8 µM in [3]; 26.7 µM in [4]; 20.8 µM in [5]; 29.9 µM in test [6]; 34.3 µM in test [7]. Also, the results for the TGI in [8], in test [9] and in test [10] were 26.8 µM, 23.4 µM and 28.3 µM, respectively.

For `N=c1oc2cc(O)ccc2cc1C(=O)Nc1cccc2ccccc12`, the TGI in test [1] is 18.7 µM; in test [2] it was more than 20.4 µM; in test [3], 20 µM; in test [4] it was 14.7 µM; in test [5], more than 35.4 µM; in [6], 36.3 µM. For the same molecule, the figures for the TGI in test [8], in [9] and in [10] were 34.4 µM, 7.83 µM and 45.9 µM, respectively.

With `O=C(CC(C(=O)c1cccs1)c1ccc2c(c1)OCO2)c1ccccc1` (configuration not stated), the TGI in test [1], in test [3], in test [4], in test [7], in [8] and in [9] was more than 100 µM each time. Besides, the TGI in [10] was more than 100 µM.

With `CC(C)[Si](Oc1ccc(CC2N(C(=O)c3ccc([N+](=O)[O-])cc3)C(CCc3ccccc3)CC2(C)C=O)cc1)(C(C)C)C(C)C` (configuration not stated), the TGI in [1] is more than 100 µM; in test [2] it was more than 100 µM; in test [3] it was more than 100 µM; in [6], more than 100 µM; in test [7] it was 23.2 µM; in [8], more than 100 µM. In addition, in test [9], the TGI was more than 100 µM.

In the case of `CC(=O)OCC1OC(O[C@H]2C=C[C@@H](C(=O)OCc3ccccc3)n3c(=O)n(-c4ccccc4)c(=O)n32)C(OC(C)=O)C(OC(C)=O)C1OC(C)=O` (some centres not stated), the TGI is 5.33 µM in [1]; more than 19.9 µM in test [2]; 8.47 µM in test [3]; 5.72 µM in test [5]; 4.75 µM in test [6]; 3.21 µM in test [7]. In addition, the TGI in test [8] amounted to 5.28 µM; in test [9], 5.92 µM; in test [10], 17 µM.

For the molecule `Cc1cc(N=Cc2c(CO)cnc(C)c2O)c(N=Cc2c(CO)cnc(C)c2O)cc1C`, the TGI in [1] is more than 100 µM; in test [2], 80 µM; in [3] it was more than 100 µM; in test [4], more than 100 µM; in test [6], more than 100 µM; in test [7] it was more than 100 µM. Also, the TGI in test [8], in [9] and in test [10] was more than 100 µM in each case. For the same molecule, in test [9], the GI50 was 41.2 µM.

In the case of `O=C(O)c1ccc(Nc2cnc3cc(C(F)(F)F)ccc3n2)cc1`, the TGI in [2], in test [3], in test [4], in [5], in test [6] and in [7] was more than 100 µM throughout. Also, the TGI in test [8], in test [9] and in test [10] was more than 100 µM throughout.

Regarding `C#CCn1c(=O)ccn(/C(=C/C(=O)OCC)C(=O)OCC)c1=O`, the TGI in test [1] was 30.8 µM; in test [2], 6.35 µM; in [3], 30.7 µM; in test [4], 18.7 µM; in test [5] it was more than 56.4 µM; in test [6], 21.9 µM. Also, the results for the TGI in [7], in test [8] and in test [9] were 3.99 µM, 21.6 µM and more than 100 µM, respectively.

With `COc1cc(C(c2ccc3c(c2)OCO3)C2SCCCS2)cc(OC)c1OC` (configuration not stated), the TGI in [1] turned out to be 5.11 µM; in [2], 3.56 µM; in [3], 8.59 µM; in test [4], 10.6 µM; in test [5], 8.29 µM; in test [6], 66.2 µM. Further, the TGI in [8] was more than 100 µM; in [9] it was 2.07 µM; in test [10], 33 µM.

`C[C@@H]1CC[C@@]2(C)[C@H](C)/C(=C\COC(=O)/C=C/c3ccc(O)c(O)c3)CC[C@@]12C`: the TGI stood at 25.8 µM in test [1]; 23.4 µM in [3]; 14 µM in test [4]; 8.9 µM in test [5]; 35 µM in test [6]; 16.2 µM in test [7]. Moreover, the TGI turned out to be 24.5 µM in test [8], 6.93 µM in test [9] and 23.6 µM in [10].

As for `NC1NCCC(=O)N1CCc1c[nH]c2ccccc12` (configuration not stated), the TGI in test [1] amounted to 27.9 µM; in [2] it was 51.9 µM; in test [3] it was 63 µM; in test [4] it was 26.5 µM; in test [6] it was 69.3 µM; in test [7], 31.5 µM. Moreover, the TGI was 34.9 µM in [8], 57.7 µM in [9] and 42 µM in test [10].
